According to US5919631A, “Method of determining the degree of aggregation of the β-A4 peptide” (Hoechst Marion Roussel, Inc., priority 1996, dated 1999):
Like-named read-outs stand apart in the source and are kept apart here.

Target: β-amyloid (βA4) peptide (Homo sapiens, UniProt P05067)
Details: 37° C.; for percentage of increase of aggregation / percent decrease in aggregation of β-amyloid: 48 hours; for percent decrease in aggregation of β-amyloid: 25 μM β-amyloid
Method: β-amyloid (also known as (βA-4) peptide was dissolved in 100% dimethylsulfoxide (DMSO) at 10 mg/ml (or 2500 μM) concentration. The resultant solution was diluted to 1 mg/ml (or 250 μM) stock in Phosphate Buffered Saline (PBS), pH 7.4, just prior to setting up the assay and dispensed in individual sample wells of a Corning 96-well plate at 16 μl per well (i.e. a final concentration of 25 μM). All treatments were done in triplicate.
In this example, the candidate compound was added to the test wells at three different concentrations (250 μM, 500 μM and 1 mM). Total volume in each well was brought up to 160 μl with PBS. For untreated control wells, no compound was added to the β-amyloid peptide, and the total volume was made to 160 μl with PBS. The plates were sealed with parafilm and incubated at 37° C. for 48 hours.
(§1) At the end of the incubation period, the plates were taken out and 25 μl of Bio-Rad protein assay dye reagent (Bradford dye) was added to all the wells with samples. A standard curve was also set up at this time for estimation of fresh (also considered as unaggregared) peptide absorbance. The dye was mixed by pipeting and the plates quickly spun at 2500 rpm to remove bubbles.
The Absorbance was read at 595 nm in a Dynatech MR5000 plate reader 15 minutes after adding the dye.
The procedure of Example 1 was repeated except that hydrogen peroxide (10 μl of 30% stock) was added to the wells in a 96-well plate with 16 μl of the 1 mg/ml β-amyloid stock. The final volume was then brought up to 160 μl by adding 134 μl of PBS to these wells. The plate was sealed and incubated at 37° C. for 48 hours.
as §1, with “samples as in Example 1.” for “samples.”, “again used” for “also set up at this time”, “unaggregated)” for “unaggregared)”
The absorbance was read at 595 nm in the Dynatech MR5000 plate reader 15 minutes after adding the dye. The amount of aggregation was estimated by subtracting background and taking the difference between the fresh and hydrogen peroxide treated β-amyloid readings. The difference was expressed as percent over fresh or unaggregated peptide.

Sequence of β-amyloid (βA4) peptide (P05067 672-713 limits assumed): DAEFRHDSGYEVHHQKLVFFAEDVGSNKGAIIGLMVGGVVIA

pentosan polysulfate
percentage of increase of aggregation (0.5 μM compound): 40.8% | percentage of increase of aggregation (5 μM compound): 57.1% | percentage of increase of aggregation (50 μM compound): 62.9%

OO [hydrogen peroxide]
percentage of aggregation (difference between fresh and treated β-amyloid, percent over fresh peptide) (10 μl of 30% stock in 160 μl, after 48 hrs): 97.7%

CCCn1cnc2c1c(=O)n(CCCCC(C)=O)c(=O)n2C [propentofylline, 1-(5'-oxohexyl)-3-methyl-7-propyl-2,6-(1H,3H)-purinedione]
percent decrease in aggregation of β-amyloid (500 μM compound): 29.68% | percent decrease in aggregation of β-amyloid (1 mM compound): 37.4%
